The source of these data is ChEMBL document CHEMBL1201862, “PubChem BioAssay data set” (2004).

SMILES strings stand for the structures.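 Step 1: Grow cells in 96-well plates. Step 2: Expose to compound for 48 hours at 5 concentrations. Step 3: Interpolate endpoints linearly; if unreached, use highest concentration. Here, GI50 denotes the concentration required for 50% inhibition of growth.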 Activity calls are given as the source filed them. No stated cut-off is given here; in the data, active = GI50 up to about 1.1 µM and inactive = higher. A value given as a limit tells only on which side of the number the result lay.

Experiment in all cases: DTP human tumour cell line panel, 48 h
The subject of assay [1] is SW-620.
Assay [2] concerns NCI-H23.
Assay [3] has as its system OVCAR-5.
Assay [4] has as its system LXFL 529.
Assay [5] concerns COLO 205.
For assay [6], the system named is MOLT-4.
Assay [7] has as its system Malme-3M.
For assay [8], the system named is NCI-H226.
The subject of assay [9] is OVCAR-3.
In assay [10] the test system is HOP-62.
Assay [11] has as its system UO-31.
The subject of assay [12] is HL-60.
The test system of assay [13] is SF-268.
Assay [14] has as its system SK-MEL-2.
Assay [15] deals with U-251.
The test system of assay [16] is RPMI-8226.
The subject of assay [17] is HCT-15.

In the case of `Cc1ccc(C(=O)O/N=C2/CCC/C2=C\c2ccccc2)cc1`, the GI50 in assay [1], in [2], in [3], in assay [4], in assay [5] and in [6] was > 100 µM (inactive) throughout. Further, the GI50 in [7], in [8], in [9], in [10], in [11] and in assay [12] was > 100 µM (inactive) throughout. Besides, the GI50 in [13] is 29.1 µM (inactive); in assay [14], > 100 µM (inactive); in assay [15], > 100 µM (inactive); in [16], > 100 µM (inactive); in [17], greater than 100 µM.

`C#CCN(N=O)C(=O)NCCCC(NC(C)=O)C(=O)NCc1ccccc1` (stereo not given): the GI50 in assay [1] was 92.5 µM (inactive); in assay [2] it was > 100 µM (inactive); in assay [3] it was > 100 µM (inactive); in assay [4], > 100 µM (inactive); in assay [5], 66.4 µM (inactive); in assay [6] it was 15.3 µM (inactive). Besides, the GI50 in assay [7], in assay [8], in assay [9], in [10], in assay [11] and in [13] was > 100 µM (inactive) in each case. The figures for the GI50 in assay [15], in assay [16] and in assay [17] were > 100 µM (inactive), 15.9 µM (inactive) and greater than 100 µM, respectively.

Regarding `CC(C)C(Sc1nc(-c2ccccc2)c(-c2ccccc2)[nH]1)c1n[nH]c(=S)n1-c1ccccc1` (stereo not given), the GI50 in assay [1] was 23.4 µM (inactive); in assay [2], 21.9 µM (inactive); in [3], 24.7 µM (inactive); in assay [4], 18.5 µM (inactive); in [5], 23.9 µM (inactive); in assay [6], 18 µM (inactive). The GI50 in [7] was 21.2 µM (inactive); in assay [8], 37.7 µM (inactive); in [9] it was 19.6 µM (inactive); in assay [10], 44.6 µM (inactive); in assay [11] it was 22.8 µM (inactive); in assay [12], 20.7 µM (inactive). In addition, the GI50 is 29.4 µM (inactive) in assay [13]; 20.4 µM (inactive) in assay [14]; 22.9 µM (inactive) in assay [15]; 21.2 µM (inactive) in assay [16]; 50.5 µM in assay [17].

Turning to `CC(C)(C)OP(=O)(OC(C)(C)C)C(O)c1ccc(/C=C(\C#N)C(N)=O)cc1` (stereo not given), the GI50 in assay [1], in assay [2], in assay [3], in assay [4], in assay [5] and in [6] was > 100 µM (inactive) throughout. The GI50 in [7] is > 100 µM (inactive); in assay [8], > 100 µM (inactive); in assay [9], > 100 µM (inactive); in assay [10] it was > 100 µM (inactive); in assay [11] it was > 100 µM (inactive); in assay [12] it was 38.9 µM (inactive). Also, the GI50 in assay [13] was > 100 µM (inactive); in [14], > 100 µM (inactive); in assay [15], > 100 µM (inactive); in assay [16], > 100 µM (inactive); in assay [17], greater than 100 µM.

As to `N#C/C(=C1\SC(/N=N/c2ccc(Cl)cc2)C(=O)N1c1ccccc1)c1nc2ccccc2[nH]1` (stereo not given), the GI50 in [1] was 98.6 µM (inactive); in [2] it was 17.3 µM (inactive); in assay [3], 25.6 µM (inactive); in assay [4], 24.6 µM (inactive); in assay [5] it was 25.2 µM (inactive); in [7], 28.4 µM (inactive). Further, the GI50 was 23.4 µM (inactive) in assay [8]; 17.1 µM (inactive) in [9]; 19.8 µM (inactive) in assay [10]; 19.8 µM (inactive) in assay [11]; 45.6 µM (inactive) in [12]; > 100 µM (inactive) in assay [13]. The GI50 was 18.2 µM (inactive) in assay [14], 20.3 µM (inactive) in assay [15] and 65.8 µM in [17].

With `C=CC[P@@]1(=O)O[C@H](c2ccccc2)C(C)N1C(C)C` (stereo not given in full), the GI50 in [1], in [2], in [3], in assay [4], in assay [6] and in assay [7] was > 100 µM (inactive) throughout. The GI50 in [8], in assay [9], in [11], in assay [12], in assay [13] and in assay [15] was > 100 µM (inactive) throughout. The GI50 in assay [16] was > 100 µM (inactive); in assay [17] it was greater than 100 µM.

As for `O=C1C=C(Br)C(=O)C(Br)=C1`, the GI50 in assay [1] was 59.7 µM (inactive); in [2], > 100 µM (inactive); in assay [3] it was > 100 µM (inactive); in [4], 54.5 µM (inactive); in assay [5], > 61.4 µM (inactive); in [6], 33.7 µM (inactive). Further, the GI50 was > 100 µM (inactive) in [7]; > 100 µM (inactive) in assay [8]; > 62.2 µM (inactive) in assay [9]; > 100 µM (inactive) in assay [10]; > 100 µM (inactive) in [11]; 20.3 µM (inactive) in assay [12]. Further, the GI50 in assay [13] is > 100 µM (inactive); in assay [14], > 100 µM (inactive); in [15] it was > 100 µM (inactive); in assay [16], 37.6 µM (inactive); in [17], greater than 79.8 µM.

Regarding `CN1S(=O)(=O)N(C)P12(N=P(CP(=NP13(N(C)S(=O)(=O)N1C)N(C)S(=O)(=O)N3C)(c1ccccc1)c1ccccc1)(c1ccccc1)c1ccccc1)N(C)S(=O)(=O)N2C`, the GI50 in [1], in assay [2], in assay [3], in assay [4], in assay [5] and in assay [6] was > 100 µM (inactive) in each case. Besides, the GI50 in [7], in [8], in assay [9], in assay [10], in assay [11] and in assay [12] was > 100 µM (inactive) each time. In addition, the GI50 was > 100 µM (inactive) in assay [13]; > 100 µM (inactive) in [14]; > 100 µM (inactive) in assay [15]; > 100 µM (inactive) in [16]; greater than 100 µM in assay [17].

On to `CN1/C(=C/C(=O)c2ccc(Cl)cc2)Nc2ccccc21`, for which the GI50 in [1] was 55.5 µM (inactive); in assay [2], 43.7 µM (inactive); in assay [3] it was 18.9 µM (inactive); in [4], 33.2 µM (inactive); in assay [5], 38 µM (inactive); in assay [6], 22.6 µM (inactive). Besides, the GI50 is > 100 µM (inactive) in assay [7]; 13.6 µM (inactive) in [8]; 47.1 µM (inactive) in assay [9]; 13.2 µM (inactive) in assay [11]; 25.1 µM (inactive) in [12]; 43.9 µM (inactive) in assay [13]. Also, the GI50 was > 100 µM (inactive) in assay [14], 47.3 µM (inactive) in assay [15], 31.8 µM (inactive) in [16] and 45.9 µM in assay [17].

Turning to `Cc1ccc(S(=O)(=O)NC(=O)C2S(=O)(=O)OCCOS2(=O)=O)cc1`, the GI50 in assay [1] is > 100 µM (inactive); in assay [2] it was > 100 µM (inactive); in assay [4] it was > 100 µM (inactive); in assay [5] it was > 100 µM (inactive); in assay [6], > 10 µM (inactive); in [7] it was > 100 µM (inactive). Also, the GI50 is 1.24 µM (inactive) in assay [8]; > 100 µM (inactive) in assay [9]; > 100 µM (inactive) in assay [10]; 40.8 µM (inactive) in assay [11]; > 100 µM (inactive) in assay [12]; > 100 µM (inactive) in assay [13]. In addition, the GI50 in assay [14] and in assay [16] was > 100 µM (inactive) each time.

Take `OCC[N+]12CCCN1CCC2`: the GI50 in assay [1], in assay [2], in [3], in assay [4], in [5] and in [6] was > 100 µM (inactive) throughout. The GI50 in assay [7], in assay [8], in assay [9], in [10], in assay [11] and in assay [12] was > 100 µM (inactive) throughout. For the same molecule, the GI50 in [13] was > 100 µM (inactive); in [14] it was > 100 µM (inactive); in assay [15] it was > 100 µM (inactive); in [17], greater than 100 µM.

For the molecule `COc1cc(/C=C/c2ccc(OC(C)=O)cc2)cc(OC)c1OC`, the GI50 in assay [1] was 43.5 µM (inactive); in [3] it was 18 µM (inactive); in assay [4] it was 29.3 µM (inactive); in [5], 27.8 µM (inactive); in [6], 16.7 µM (inactive); in assay [7] it was 26 µM (inactive). For the same molecule, the GI50 in assay [8] was 35.8 µM (inactive); in assay [9] it was 22.6 µM (inactive); in assay [10], 45.7 µM (inactive); in assay [11], 21.1 µM (inactive); in assay [12] it was 12.4 µM (inactive); in assay [13], 32 µM (inactive). Moreover, the figures for the GI50 in assay [15], in assay [16] and in assay [17] were 28 µM (inactive), 19.1 µM (inactive) and 27.8 µM, respectively.

As for `CC(C)=CC(=O)c1c(C(=O)O)nc2ccccc2[n+]1[O-]`, the GI50 in assay [1], in [2], in assay [3], in assay [4], in assay [5] and in assay [6] was > 100 µM (inactive) in each case. In addition, the GI50 in [8], in assay [10], in assay [11], in assay [12], in assay [13] and in assay [14] was > 100 µM (inactive) in each case. The GI50 was > 100 µM (inactive) in assay [15], > 100 µM (inactive) in assay [16] and greater than 100 µM in assay [17].

Broadly, the GI50 is the concentration giving 50% growth inhibition.
